# Reference: publication PMC7782162, “Inhibition of the β-carbonic anhydrase from the protozoan pathogen Trichomonas vaginalis with sulphonamides” (Journal of Enzyme Inhibition and Medicinal Chemistry, 2020)
# Biological target: T1, TvaCA1 (Trichomonas vaginalis, UniProt A2ENQ8)
# T1 construct: gene TVAG_005270; recombinant from E. coli BL21 Star (DE3), Ni2+-NTA purified; beta-CA homodimer with two active sites
# T1 sequence (A2ENQ8 1-182): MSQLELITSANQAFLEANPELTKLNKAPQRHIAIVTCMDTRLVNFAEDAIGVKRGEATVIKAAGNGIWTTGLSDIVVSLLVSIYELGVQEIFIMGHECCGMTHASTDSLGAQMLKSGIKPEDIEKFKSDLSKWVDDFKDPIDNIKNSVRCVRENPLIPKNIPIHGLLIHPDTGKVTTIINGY
# Experiment: stopped-flow CO2 hydrase assay
# Assay type: biochemical
# Conditions: read-out: KI^a (nM) / TvaCA1^c
row,SMILES,Ki [nM]
1,"Nc1ccc(S(N)(=O)=O)cc1F [compound 7, 7]",4280
2,"Cc1ccc(S(N)(=O)=O)cc1 [compound 4, 4]",3600
3,"NS(=O)(=O)c1cccc(S(N)(=O)=O)c1 [compound 3, 3]",3560
4,"Nc1nccc(Nc2ccc(S(N)(=O)=O)cc2)n1 [compound 19, 19]",4530
5,"NS(=O)(=O)Cc1noc2ccccc12 [ZNS, zonisamide]",> 50000
6,"NS(=O)(=O)c1ccc(O)cc1 [compound 15, 15]",2030
7,"Nc1ccc(S(N)(=O)=O)cc1 [compound 2, 2]",4740
8,"NS(=O)(=O)c1ccc(CCNS(=O)(=O)c2ccc([N+](=O)[O-])cc2CO)cc1 [compound 21, 21]",3450
9,"NS(=O)(=O)c1cc(Cl)cc(Cl)c1O [compound 10, 10]",4540
10,"CC1(C)O[C@@H]2[C@@H](CO[C@@]3(COS(N)(=O)=O)OC(C)(C)O[C@@H]23)O1 [TPM, topiramate]",> 50000
11,"NS(=O)(=O)c1nnc(NS(=O)(=O)c2ccccc2)s1 [BZA, benzolamide]",> 50000
12,"CC(=O)N=c1sc(S(N)(=O)=O)nn1C [MZA, methazolamide]",3830
13,"CCN[C@H]1CN(CCCOC)S(=O)(=O)c2sc(S(N)(=O)=O)cc21 [BRZ, brinzolamide]",> 50000
14,"Cn1nc(S(N)(=O)=O)sc1=N [compound 14, 14]",3990
15,"NS(=O)(=O)c1cc(Cl)c(Cl)c(S(N)(=O)=O)c1 [DCP, dichlorophenamide]",> 50000
16,"Nc1nnc(S(N)(=O)=O)s1 [compound 13, 13]",1890
17,"Nc1cccc(S(N)(=O)=O)c1 [compound 1, 1]",3250

# Biological target: T1, TvaCA1
# Experiment: biochemical
# Design: stopped-flow CO2 hydration assay, phenol red at 557 nm, TRIS pH 8.3, 15 min preincubation, KI
# Conditions: inhibitor; read-out: KI^a (nM) / TvaCA1^c / β
# Protocol: An Applied Photophysics stopped-flow instrument was used for assaying the CA catalysed CO2 hydration activity. Phenol red (at a concentration of 0.2 mM) was used as an indicator, working at the absorbance maximum of 557 nm, with 10 − 20 mM HEPES (pH 7.5, for α-CAs) or TRIS (pH 8.3 for β-CAs) as buffers, and 20 mM NaClO4 (for maintaining constant the ionic strength), following the initial rates of the CA-catalysed CO2 hydration reaction for a period of 10–100 s. The CO2 concentrations ranged from 1.7 to 17 mM for the determination of the kinetic parameters and inhibition constants. For each inhibitor, at least six traces of the initial 5–10% of the reaction were used for determining the initial velocity. The uncatalyzed rates were determined in the same manner and subtracted from the total observed rates. Stock solutions of inhibitors (10 mM) and dilutions up to 0.01 nM were prepared in distilled-deionised water. Inhibitor and enzyme solutions of concentrations ranging between 5 and 12 nM were preincubated together for 15 min at room temperature prior to assay, in order to allow for the formation of the enzyme–inhibitor complex. The inhibition constants were obtained by non-linear least-squares methods using PRISM 3 as reported earlier, and represent the mean from at least three different determinations. TvaCA1 was a recombinant enzyme obtained in-house as described earlier. The enzyme was recombinantly produced in E. coli (OneShot® BL21 Star™ (DE3) Chemically Competent Cells, #C601003, Thermo Fisher Scientific, Finland). The enzyme was purified using Ni^2+-NTA agarose affinity chromatography resin (Macherey-Nagel GmbH Co., Germany). More detailed information concerning the recombinant protein production and its kinetic and structural characterisation can be found in our previous article. The presence of the correct protein in the isolated protein fraction was confirmed by tandem mass spectrometry (MS/MS).
row,SMILES,Ki [nM]
1,Nc1ccc(S(=O)(=O)NCc2ccc(S(N)(=O)=O)cc2)cc1 [compound 23],> 50000

# Same assay, conditions: read-out: KI^a (nM) / TvaCA1^c / β
row,SMILES,Ki [nM]
1,NS(=O)(=O)c1ccc(CCO)cc1 [compound 17],> 50000
2,NS(=O)(=O)c1ccc(CO)cc1 [compound 16],> 50000
3,NCc1ccc(S(N)(=O)=O)cc1 [compound 5],> 50000
4,NS(=O)(=O)c1ccc(C(=O)O)cc1 [compound 18],> 50000
5,O=C1NS(=O)(=O)c2ccccc21 [SAC],> 50000
6,NS(=O)(=O)c1ccc(N2CCCCS2(=O)=O)cc1 [SLT],> 50000
7,Nc1ccc(S(=O)(=O)Nc2nnc(S(N)(=O)=O)s2)cc1 [compound 20],> 50000
8,Nc1ccc(S(N)(=O)=O)cc1Br [compound 9],> 50000
9,Nc1cc(Cl)c(S(N)(=O)=O)cc1S(N)(=O)=O [compound 12],> 50000
10,Nc1ccc(S(N)(=O)=O)cc1Cl [compound 8],> 50000
11,Nc1ccc(S(=O)(=O)Nc2ccc(S(N)(=O)=O)cc2)cc1 [compound 22],> 50000
12,NS(=O)(=O)c1cc2c(cc1Cl)NCNS2(=O)=O [HCT],> 50000
13,Cc1ccc(-c2cc(C(F)(F)F)nn2-c2ccc(S(N)(=O)=O)cc2)cc1 [CLX],> 50000
14,Nc1cc(C(F)(F)F)c(S(N)(=O)=O)cc1S(N)(=O)=O [compound 11],> 50000
15,NS(=O)(=O)c1ccc(S(=O)(=O)Nc2cccc3c(Cl)c[nH]c23)cc1 [IND],> 50000
16,NCCc1ccc(S(N)(=O)=O)cc1 [compound 6],> 50000
17,Cc1onc(-c2ccccc2)c1-c1ccc(S(N)(=O)=O)cc1 [VLX],> 50000
